This experiment concerns remnant kidney (RK) rats. Description: Micropuncture procedure to assess glomerular hemodynamics. The conditions noted are these: for GFR / Kf / PGC / QA / SNGFR / MAP: end of four weeks; for MAP: under anesthesia. The experiment is classed as in vivo, Male Wistar rats. The method, then:
Male Wistar rats (295-340 g) were used to produce rats with remnant kidney (RK) as follows. […] Rats were then assigned to one of four treatment groups: Group 1, RK control rats (n=7); Group 2, RK+febuxostat (Fx) rats (n=8); […] Oxonic acid (OA) (Sigma-Aldrich, St Louis Mo., USA), administered at 750 mg/kg body weight daily by oral gavage, was given starting the day after the 5⁄6 nephrectomy. […] All groups were treated for four weeks. Body weight (beginning just before surgery) and food and water intakes were measured daily. Systolic blood pressure, measured in conscious rats by a tail cuff sphygmomanometer, and plasma uric acid (UA) levels were measured at just before surgery (namely, at baseline) and at the end of the four weeks. Proteinuria was measured at baseline and at the end of two and four weeks. A renal micropuncture procedure along with systemic blood pressure monitoring under pentobarbital anesthesia was performed at the end of four weeks followed by morphologic evaluation of the renal preglomerular microvasculature. Animals were anesthetized with pentobarbital sodium (30 mg/kg, intraperitoneal (ip)) and placed on a thermoregulated table to maintain body temperature at 37° C. Trachea, jugular veins, femoral arteries and the left ureter were catheterized with polyethylene tubing (PE-240, PE-50, and PE-10). The left kidney was exposed, placed in a Lucite holder, sealed with agar, and covered with Ringer's solution. Mean arterial pressure (MAP) was monitored with a pressure transducer (Model p23 db; Gould, San Juan, Puerto Rico) connected to the catheter in the femoral artery and recorded on a polygraph (Grass Instruments, Quincy, Mass., USA). Blood samples were taken periodically and replaced with blood from a donor rat. Rats were maintained under euvolemic conditions by infusion of 10 mL/kg of body weight of isotonic rat plasma during surgery, followed by an infusion of 25%, polyfructosan, at 2.2 ml/h (Inutest; Fresenius Kabi, Linz, Austria). After 60 minutes, five to seven samples of proximal tubular fluid were obtained to determine flow rate and polyfructosan concentrations. Intratubular pressure under free-flow (FF) and stop-flow (SFP) conditions and peritubular capillary pressure (Pc) were measured in other proximal tubules with a servo-null device (Servo Nulling Pressure System; Instrumentation for Physiology and Medicine, San Diego, Calif., USA). Glomerular colloid osmotic pressure was estimated from protein concentrations obtained from blood of the femoral artery (Ca) and surface efferent arterioles (Ce). Polyfructosan was measured in plasma and urine samples by the anthrone-based technique described by Davidson and […] in “Simplification of the anthrone method for the determination of inulin in clearance studies,” J Lab Clin Med. 62:351-356 (1963), the contents of which are herein incorporated by reference. In brief, plasma samples were deproteinated first with trichloroacetic acid. After centrifugation, the supernatant was used for polyfructosan measurement. Polyfructosan concentrations in plasma and urine samples were assessed by the addition of anthrone reagent followed by incubation at 45° C. for 50 minutes and reading in a spectrophotometer set at wavelength of 620 nm. […] Total GFR was calculated using the following formula: GFR=(U×V)/P, where U is the polyfructosan concentration in urine, V is urine flow rate, and P is the polyfructosan concentration in plasma. The volume of fluid collected from individual proximal tubules was estimated from the length of the fluid column in a constant-bore capillary tube of known internal diameter. The concentration of tubular polyfructosan was measured by the microfluorometric method described by Vurek and Pegram in “Fluorometric method for the determination of nanogram quantities of inulin,” Anal Biochem 16:409-419 (1966), the contents of which are herein incorporated by reference. […]

Setting [1] is: RK + OA + Fx group (OA-induced hyperuricemia).
[2] abbreviates: RK rats (RK + Fx or RK + OA group).

Take `Cc1nc(-c2ccc(OCC(C)C)c(C#N)c2)sc1C(=O)O` [febuxostat, 2-[3-cyano-4-(2-methylpropoxy)phenyl]-4-methylthiazole-5-carboxylic acid]: under setting [1], the GFR is 0.44 ± 0.05 mL/min, the Kf was determined as 0.037 ± 0.004 nL/s · mmHg, the PGC stood at 52.0 ± 1.2 mmHg and the QA is 151 ± 19 nL/min. Under setting [1], the SNGFR is reported as 42.2 ± 4.9 nL/min and the MAP stood at 172 ± 8 mmHg. Moreover, under setting [2], the GFR is 0.51 ± 0.04 mL/min, the Kf was 0.035 ± 0.005 nL/s · mmHg, the PGC was 52.2 ± 1.9 mmHg and the QA worked out at 142 ± 11 nL/min. Further, under setting [2], the SNGFR stood at 36.7 ± 3.1 nL/min and the MAP worked out at 189 ± 8 mmHg. Besides, the “GFR (in words)” value (RK+Fx and RK+OA+Fx rats vs the two untreated groups) was “increase GFR compared to the two untreated groups”. Under “RK+Fx and RK+OA+Fx rats, normal glomerular pressure and plasma flow maintained”, the “Single-nephron hyperfiltration (in words)” value is “prevented single-nephron hyperfiltration”. The “Afferent arteriolar resistances (in words)” value (RK+OA+Fx rats vs untreated cohorts) is reported as “higher afferent arteriolar resistances compared to their respective untreated cohorts”.

The record behind these values is US20130143886A1, “METHODS FOR PRESERVING AND/OR INCREASING RENAL FUNCTION USING XANTHINE OXIDOREDUCTASE INHIBITORS” (priority 2006, published 2013).
